Measurements reported in patent US8491891B2, “Human beta-glucuronidase mutants with elevated enzymatic activity under physiological conditions and method for identifying such” (Academia Sinica, priority 2008, dated 2013).
Read-outs that look alike come from different tables or passages of the source. Marks after values point to notes of the source that are not given here.

Legend:
[1] = Intratumoral concentrations of CPT-11, SN-38 and SN-38G after CPT-11 treatment (SPE-HPLC)
Description: Tumors were collected 2, 8 and 24 h after CPT treatment, immediately dispersed in ice-cold acidic methanol (methanol: water: perchloric acid=20:20:1), and homogenized 60 sec on an Ultraturax tissue homogenizer at 20,000 rpm. The samples were clarified by centrifugation at 15,000 g for 5 min at 4° C. Supernatants were diluted with 0.1 M KH2PO4 and then separated by SPE-HPLC on a μBondapack column with 27% acetonitrile in 0.1 M potassium phosphate buffer pH=2.6. […] These three analytes were quantified by comparison with standard curves generated with analyte concentrations ranging from 2.0 pg to 200 ng.

[2] = Serum concentrations of CPT-11, SN-38 and SN-38G after CPT-11 administration; details: for Serum levels in mice bearing EJ versus EJ/mβG tumor: 2 h after CPT-11 administration; for Serum concentrations in mice bearing EJ versus EJ/mβG tumor: 8 h or 24 h after CPT-11 administration
[3] = tested on: EJ/mβG cells; experiment: Sensitivity of EJ/mβG cells to CPT-11, SN-38, SN-38G (3H-thymidine incorporation); details: for IC50: read-out: IC50 (cytotoxicity), EJ/mβG cells
Description: EJ human bladder carcinoma cells were cultured in RPMI medium supplemented with 10% bovine calf serum in a humidified atmosphere of 5% CO2 in air at 37° C.
(§1) Cell viability was examined by measuring ^3H-thymidine incorporation into cellular DNA after the cells were cultured for an additional 24 h in fresh medium.

[4] = tested on: EJ human bladder carcinoma cells; experiment: Sensitivity of EJ cells to CPT-11, SN-38, SN-38G (3H-thymidine incorporation)
Description: as §1

[5] = Enzymatic activity of purified position-545 single mutants at pH 7.0; assay type: biochemical; details: purified enzyme
From the text: DNA plasmids were extracted from 12 individual cell clones and subjected to DNA sequencing to examine mutations in the genes encoding human β-glucuronidase variants. All human β-glucuronidase variants being examined had mutations at position 545 (50% T→A and 50% T→S). To determine the effect of amino acid substitutions at position 545 on enzyme activity, the single amino acid mutants T545A (E1-A), T545G (E1-G), T545S (E1-S) and T545Y (E1-Y) were generated and purified from the culture medium of stably transfected fibroblasts. […] Thus, the single amino acid substitution at position 545 affected human β-glucuronidase activity at neutral pH.

[6] = Relative activity of membrane-tethered human β-glucuronidase variants on 3T3 cells by flow cytometry (FL4/FL1); assay type: cell-based; details: membrane-tethered enzyme, pH 7.0, substrate ELF97 β-D-glucuronide
Description: The 3T3 cell libraries mentioned above were screened by FACS analysis for cells that express human β-glucuronidase variants with elevated enzymatic activity. 10^7 3T3 cells expressing membrane-bound human β-glucuronidase variants were washed and suspended in 0.4 ml BSA/HBSS (5.4 mM KCl, 0.3 mM Na2HPO4, 0.4 mM KH2PO4, 4.2 mM NaHCO3, 1.3 mM CaCl2, 0.5 mM MgCl2, 0.6 mM MgSO4, 137 mM NaCl, 5.6 mM D-glucose, pH 7.4) containing 0.5% bovine serum albumin (BSA) and 20 μg/ml 7G8-FITC for 30 min at 4° C. Cells were then washed and incubated with 25, 50 or 100 μM ELF97 β-D-glucuronide at defined pH values in 50 mM Bis-Tris, 25 mM glucose, 85.6 mM NaCl, 5.4 mM KCl, 0.6 mM MgSO4, 1.3 mM CaCl2) at 37° C. for 10 min. The cells were washed with ice-cold 0.5% BSA/HBSS and suspended in 0.5% BSA/HBSS containing 5 μg/ml propidium iodide (Sigma). Cells were then sorted on a FACSVantage DiVa (Becton, Dickinson and Company, Franklin Lakes, N.J.) equipped with an Enterprise IIC argon laser for dual excitation at 488 and 351-364 nm. Dead cells (propidium iodide positive, high FL3 fluorescence) were gated out before 7G8-FITC immunofluorescence was detected at excitation/emission wavelengths of 488/515 nm (FL1) and ELF97 was detected at excitation/emission wavelengths of 351/530 nm (FL4). […] The sorted cells were cultured for 4-10 days for sequential rounds of cell sorting or RNA extraction. Flow cytometer data was analyzed using Flowjo (Tree star, Ashland, Oreg.).
Independent 3T3 clones (5×10^7) in library EP2 mentioned above were immunofluorescence stained with 7G8-FITC and reacted with ELF97 β-D-glucuronide at pH 7.0. Sixteen individual cell clones were isolated after three rounds of sorting and the human β-glucuronidase genes were sequenced. […] Table 1 below lists amino acid substitutions in five exemplary variants and their relative enzymatic activities.

[7] = Kinetic values (Km, kcat) of soluble recombinant human β-glucuronidase and variants; assay type: biochemical
Description: Recombinant His-tagged wild-type human β-glucuronidase and its variants (soluble) were produced in and purified from stable 3T3 fibroblast lines, following the method described above also the method described in Wu et al., Biotechnol Appl Biochem 40:167-172 (2004).
The pH-dependent enzyme activities of the above-mentioned recombinant human beta-glucuronidase and variants were measured in triplicate with 0.1 mM ELF97 β-D-glucuronide at 37° C. for 30 minutes at a defined pH ranging from 3-10 in a beta-glucuronidase reaction buffer (50 mM Bis-Tris, 50 mM triethanol amine, 100 mM acetic acid, 0.1% BSA). The reaction was quenched by adding an equal volume of a stop buffer (2 M Tris-HCl, 0.8 M sodium bicarbonate, pH 8). The fluorescence of ELF97 was measured in a Gemini EM microplate spectrofluorometer (Molecular Device, Sunnyvale, Calif.) at excitation/emission wavelengths of 355/555 nm. Kinetic values for human beta-glucuronidase substrate hydrolysis were determined by diluting ELF97 β-D-glucuronide (2 mM) in a pH 4.5 or pH 7.0 beta-glucuronidase reaction buffer 1:1 with defined concentrations of human beta-glucuronidase in 200 μl. Fluorescence was immediately measured under thermal control at 37° C. for 8-10 min. The measurement was repeated using the same amount of enzyme at different substrate concentrations in an optimal range. The acquired readings were converted to product concentration based on preestablished standard curves. Double reciprocal plots were used to determine Km and kcat. Kinetic assays were performed at least 3 times and mean values were calculated. The stability of recombinant human beta-glucuronidase variants was carried out by measuring their enzymatic activity at time 0 and again after incubating 5 μg purified enzymes in PBS (containing 0.5 mg/ml BSA) at 37° C. for 14 days. The enzymatic activities of the human beta-glucuronidase variants were measured in triplicate with 0.5 mM 4-methylumbelliferyl β-D-glucuronide at 37° C. for 15 minutes at pH 7.0 in β-glucuronidase reaction buffer. The reaction was terminated by adding an equal volume of a stop buffer (1 M glycine, 0.5 M sodium bicarbonate, pH 11) and the fluorescence was measured at excitation/emission wavelengths of 355/460 nm in a microplate spectrofluorometer.

[8] = 24 h after CPT-11 10 mg/kg i.v.

Molecule	Serum levels in mice bearing EJ versus EJ/mβG tumor [2]	Serum concentrations in mice bearing EJ versus EJ/mβG tumor [2]	IC50 ([3]; pH 6.6)	IC50 ([3]; pH 7.4)	Relative activity (FL4/FL1 normalized to wild-type human β-glucuronidase) [6]	Km ([7]; pH 4.5, 37° C.)	kcat ([7]; pH 4.5, 37° C.)	Km ([7]; pH 7.0, 37° C.)	kcat ([7]; pH 7.0, 37° C.)	further results
CCc1c2c(nc3ccc(O)cc13)-c1cc3c(c(=O)n1C2)COC(=O)[C@]3(O)CC [SN-38]	similar	no significant differences	2 nM	6 nM						Intratumoral concentration, percent higher in EJ/mβG tumors as compared to EJ tumors ([1]; 2, 8 and 24 h): 65-130%; Difference EJ/mβG vs EJ (EJ values as 100%) ([1]; 2 h): 65.63* %; Concentration in EJ xenografts ([1]; 2 h after CPT-11 10 mg/kg i.v.): 43 ± 10.5 ng drug/g tumor; Concentration in EJ/mβG xenografts ([1]; 2 h after CPT-11 10 mg/kg i.v.): 71 ± 13 ng drug/g tumor; Difference EJ/mβG vs EJ (EJ values as 100%) ([1]; 8 h): 127.10* %; Concentration in EJ xenografts ([1]; 8 h after CPT-11 10 mg/kg i.v.): 7.5 ± 0.93 ng drug/g tumor; Concentration in EJ/mβG xenografts ([1]; 8 h after CPT-11 10 mg/kg i.v.): 17 ± 5.56 ng drug/g tumor; Difference EJ/mβG vs EJ (EJ values as 100%) ([1]; 24 h): 71.43* %; Concentration in EJ xenografts [1, 8]: 0.07 ± 0.02 ng drug/g tumor; Concentration in EJ/mβG xenografts [1, 8]: 0.12 ± 0.01 ng drug/g tumor; IC50 ([4]; read-out: IC50 (cytotoxicity), pH 6.6): 2 nM; IC50 ([4]; read-out: IC50 (cytotoxicity), pH 7.4): 6 nM
SN-38G	similar	no significant differences	32 nM	190 nM						Sensitivity of EJ/mβG cells relative to EJ cells ([3]; EJ/mβG vs EJ cells): over 30 times; Cytotoxicity at the highest concentration investigated ([4]; 1000 nM): non-toxic
E1-A: human β-glucuronidase single amino acid mutant T545A (protein, UniProt P08236 23-651, looked up, variant T545A) Beta-glucuronidase: LQGGMLYPQESPSRECKELDGLWSFRADFSDNRRRGFEEQWYRRPLWESGPTVDMPVPSSFNDISQDWRLRHFVGWVWYEREVILPERWTQDLRTRVVLRIGSAHSYAIVWVNGVDTLEHEGGYLPFEADISNLVQVGPLPSRLRITIAINNTLTPTTLPPGTIQYLTDTSKYPKGYFVQNTYFDFFNYAGLQRSVLLYTTPTTYIDDITVTTSVEQDSGLVNYQISVKGSNLFKLEVRLLDAENKVVANGTGTQGQLKVPGVSLWWPYLMHERPAYLYSLEVQLTAQTSLGPVSDFYTLPVGIRTVAVTKSQFLINGKPFYFHGVNKHEDADIRGKGFDWPLLVKDFNLLRWLGANAFRTSHYPYAEEVMQMCDRYGIVVIDECPGVGLALPQFFNNVSLHHHMQVMEEVVRRDKNHPAVVMWSVANEPASHLESAGYYLKMVIAHTKSLDPSRPVTFVSNSNYAADKGAPYVDVICLNSYYSWYHDYGHLELIQLQLATQFENWYKKYQKPIIQSEYGAEAIAGFHQDPPLMFTEEYQKSLLEQYHLGLDQKRRKYVVGELIWNFADFMTEQSPTRVLGNKKGIFTRQRQPKSAAFLLRERYWKIANETRYPHSVAKSQCLENSLFT										Enzymatic activity relative to wild-type human β-glucuronidase [5]: about 2.5 fold
E2-20: human beta-glucuronidase variant L243Q, L255Q, T545G, SEQ ID NO: 10 (protein, Laboratory generated variant, E2-20, based upon the human beta-glucuronidase) AAQPALQGGMLYPQESPSRECKELDGLWSFRADFSDNRRRGFEEQWYRRPLWESGPTVDMPVPSSFNDISQDWRLRHFVGWVWYEREVILPERWTQDLRTRVVLRIGSAHSYAIVWVNGVDTLEHEGGYLPFEADISNLVQVGPLPSRLRITIAINNTLTPTTLPPGTIQYLTDTSKYPKGYFVQNTYFDFFNYAGLQRSVLLYTTPTTYIDDITVTTSVEQDSGQVNYQISVKGSNQFKLEVRLLDAENKVVANGTGTQGQLKVPGVSLWWPYLMHERPAYLYSLEVQLTAQTSLGPVSDFYTLPVGIRTVAVTKSQFLINGKPFYFHGVNKHEDADIRGKGFDWPLLVKDFNLLRWLGANAFRTSHYPYAEEVMQMCDRYGIVVIDECPGVGLALPQFFNNVSLHHHMQVMEEVVRRDKNHPAVVMWSVANEPASHLESAGYYLKMVIAHTKSLDPSRPVTFVSNSNYAADKGAPYVDVICLNSYYSWYHDYGHLELIQLQLATQFENWYKKYQKPIIQSEYGAEGIAGFHQDPPLMFTEEYQKSLLEQYHLGLDQKRRKYVVGELIWNFADFMTEQSPTRVLGNKKGIFTRQRQPKSAAFLLRERYWKIANETRYPHSVAKSQCLENSPFTSVD					116	6.7 ± 0.5 µM	71 ± 3 s⁻¹	38 ± 5 µM	30 ± 5 s⁻¹	Km as compared to E1-G [7]: about a three-fold smaller Km; kcat/Km at pH 7.0, fold greater than kcat/Km of wild type at pH 4.5 ([7]; variant at pH 7.0 vs wild type at pH 4.5): about 2 fold
S28: human beta-glucuronidase variant Q518R, T545S, E595Y, T599F, SEQ ID NO: 9 (protein, Laboratory generated variant, S28, based upon the human beta-glucuronidase) AAQPALQGGMLYPQESPSRECKELDGLWSFRADFSDNRRRGFEEQWYRRPLWESGPTVDMPVPSSFNDISQDWRLRHFVGWVWYEREVILPERWTQDLRTRVVLRIGSAHSYAIVWVNGVDTLEHEGGYLPFEADISNLVQVGPLPSRLRITIAINNTLTPTTLPPGTIQYLTDTSKYPKGYFVQNTYFDFFNYAGLQRSVLLYTTPTTYIDDITVTTSVEQDSGLVNYQISVKGSNLFKLEVRLLDAENKVVANGTGTQGQLKVPGVSLWWPYLMHERPAYLYSLEVQLTAQTSLGPVSDFYTLPVGIRTVAVTKSQFLINGKPFYFHGVNKHEDADIRGKGFDWPLLVKDFNLLRWLGANAFRTSHYPYAEEVMQMCDRYGIVVIDECPGVGLALPQFFNNVSLHHHMQVMEEVVRRDKNHPAVVMWSVANEPASHLESAGYYLKMVIAHTKSLDPSRPVTFVSNSNYAADKGAPYVDVICLNSYYSWYHDYGHLELIRLQLATQFENWYKKYQKPIIQSEYGAESIAGFHQDPPLMFTEEYQKSLLEQYHLGLDQKRRKYVVGELIWNFADFMTYQSPFRVLGNKKGIFTRQRQPKSAAFLLRERYWKIANETRYPHSVAKSQCLENSPFTSVD					47	16 ± 3 µM	79 ± 3 s⁻¹	72 ± 24 µM	26 ± 3 s⁻¹	
